We go through ten molecules from US11739098B2 (BRISTOL-MYERS SQUIBB COMPANY, priority 2017, dated 2023).

The structures appear in SMILES notation. pIC50: −log10 of the molar value.

Common to all, as to format: cell-based
For one assay, the target named is T1, human TLR8 (Homo sapiens, UniProt Q9NR97).
T1 construct: host or cells: HEK-Blue cells (HEK293-derived reporter line)
T1 sequence (Q9NR97 27-1041): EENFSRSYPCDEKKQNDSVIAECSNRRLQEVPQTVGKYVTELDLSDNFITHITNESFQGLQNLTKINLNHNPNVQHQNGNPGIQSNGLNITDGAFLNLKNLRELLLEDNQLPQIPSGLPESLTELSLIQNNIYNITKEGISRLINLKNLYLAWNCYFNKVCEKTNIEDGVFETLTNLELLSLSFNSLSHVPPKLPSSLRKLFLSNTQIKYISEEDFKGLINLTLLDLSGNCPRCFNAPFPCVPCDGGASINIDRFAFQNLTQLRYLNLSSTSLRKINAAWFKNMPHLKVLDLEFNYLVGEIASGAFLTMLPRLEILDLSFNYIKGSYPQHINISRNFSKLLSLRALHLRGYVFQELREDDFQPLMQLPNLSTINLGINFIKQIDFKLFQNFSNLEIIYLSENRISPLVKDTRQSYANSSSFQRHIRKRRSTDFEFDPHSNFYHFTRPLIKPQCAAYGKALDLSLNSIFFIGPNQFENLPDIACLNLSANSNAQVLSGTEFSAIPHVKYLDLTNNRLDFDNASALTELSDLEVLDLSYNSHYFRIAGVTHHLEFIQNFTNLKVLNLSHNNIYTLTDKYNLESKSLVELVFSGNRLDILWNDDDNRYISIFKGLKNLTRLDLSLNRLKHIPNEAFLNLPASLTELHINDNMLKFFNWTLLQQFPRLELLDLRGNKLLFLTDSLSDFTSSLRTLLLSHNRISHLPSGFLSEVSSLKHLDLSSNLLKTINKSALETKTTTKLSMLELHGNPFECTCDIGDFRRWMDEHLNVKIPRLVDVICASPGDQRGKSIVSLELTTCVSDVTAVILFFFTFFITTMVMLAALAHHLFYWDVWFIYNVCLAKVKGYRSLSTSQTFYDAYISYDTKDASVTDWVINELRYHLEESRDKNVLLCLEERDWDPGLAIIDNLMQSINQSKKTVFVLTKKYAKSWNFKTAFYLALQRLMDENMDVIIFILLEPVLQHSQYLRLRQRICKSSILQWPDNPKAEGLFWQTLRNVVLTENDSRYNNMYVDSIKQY
In words: TLR8 inhibition reporter assay (HEK-Blue cells, SEAP reporter, R848 stimulation). As to conditions: HEK-Blue cells overexpressing human TLR8, SEAP reporter, R848 15.9 μM. The essentials: (§1)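 HEK-Blue cells overexpressing human TLR7, TLR8 or TLR9 (NF-κB/AP-1-driven SEAP) pre-treated 30 min at room temperature with compound (0.05 nM–50 μM), then stimulated with gardiquimod 7.5 μM (TLR7), R848 15.9 μM (TLR8) or ODN2006 5 nM (TLR9). SEAP read colorimetrically after 22 h at 37 °C; % inhibition calculated.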

A further assay has as its target T2, human TLR9 (Homo sapiens, UniProt Q9NR96).
T2 construct: host or cells: HEK-Blue cells (HEK293-derived reporter line)
T2 sequence (Q9NR96 26-1032): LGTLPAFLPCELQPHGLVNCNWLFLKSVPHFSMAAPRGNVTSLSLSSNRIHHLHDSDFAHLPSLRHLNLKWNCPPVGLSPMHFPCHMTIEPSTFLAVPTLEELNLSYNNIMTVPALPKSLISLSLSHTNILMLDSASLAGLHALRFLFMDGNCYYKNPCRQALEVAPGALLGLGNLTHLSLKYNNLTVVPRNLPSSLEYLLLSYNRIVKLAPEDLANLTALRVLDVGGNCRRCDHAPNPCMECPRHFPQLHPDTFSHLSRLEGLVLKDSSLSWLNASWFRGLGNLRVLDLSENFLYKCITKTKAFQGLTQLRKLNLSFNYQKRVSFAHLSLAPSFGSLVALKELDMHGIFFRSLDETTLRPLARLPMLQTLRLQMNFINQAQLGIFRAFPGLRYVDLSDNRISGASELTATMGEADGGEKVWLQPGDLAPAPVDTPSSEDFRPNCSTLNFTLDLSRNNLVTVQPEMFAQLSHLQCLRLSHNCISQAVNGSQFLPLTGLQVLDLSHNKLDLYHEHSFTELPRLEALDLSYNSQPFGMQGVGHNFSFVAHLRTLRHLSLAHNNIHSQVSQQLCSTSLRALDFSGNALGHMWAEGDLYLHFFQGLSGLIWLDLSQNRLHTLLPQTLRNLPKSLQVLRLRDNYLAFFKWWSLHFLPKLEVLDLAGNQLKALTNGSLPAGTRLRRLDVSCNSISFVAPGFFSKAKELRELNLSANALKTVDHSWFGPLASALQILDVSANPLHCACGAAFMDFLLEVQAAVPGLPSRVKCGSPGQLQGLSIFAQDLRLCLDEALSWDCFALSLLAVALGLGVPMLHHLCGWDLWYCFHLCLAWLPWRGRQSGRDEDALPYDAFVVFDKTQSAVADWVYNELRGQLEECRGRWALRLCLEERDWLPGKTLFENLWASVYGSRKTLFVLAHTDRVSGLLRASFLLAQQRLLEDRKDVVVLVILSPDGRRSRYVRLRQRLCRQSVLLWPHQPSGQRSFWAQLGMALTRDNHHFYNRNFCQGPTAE
In words: TLR9 inhibition reporter assay (HEK-Blue cells, SEAP reporter, ODN2006 stimulation). The conditions noted are these: HEK-Blue cells overexpressing human TLR9, SEAP reporter, ODN2006 5 nM. The essentials: as §1
For orientation: In a reporter assay the amount or activity of a reporter protein is the signal.

The target in the next assay is T3, human TLR7 (Homo sapiens, UniProt Q9NYK1).
T3 construct: host or cells: HEK-Blue cells (HEK293-derived reporter line)
T3 sequence (Q9NYK1 27-1049): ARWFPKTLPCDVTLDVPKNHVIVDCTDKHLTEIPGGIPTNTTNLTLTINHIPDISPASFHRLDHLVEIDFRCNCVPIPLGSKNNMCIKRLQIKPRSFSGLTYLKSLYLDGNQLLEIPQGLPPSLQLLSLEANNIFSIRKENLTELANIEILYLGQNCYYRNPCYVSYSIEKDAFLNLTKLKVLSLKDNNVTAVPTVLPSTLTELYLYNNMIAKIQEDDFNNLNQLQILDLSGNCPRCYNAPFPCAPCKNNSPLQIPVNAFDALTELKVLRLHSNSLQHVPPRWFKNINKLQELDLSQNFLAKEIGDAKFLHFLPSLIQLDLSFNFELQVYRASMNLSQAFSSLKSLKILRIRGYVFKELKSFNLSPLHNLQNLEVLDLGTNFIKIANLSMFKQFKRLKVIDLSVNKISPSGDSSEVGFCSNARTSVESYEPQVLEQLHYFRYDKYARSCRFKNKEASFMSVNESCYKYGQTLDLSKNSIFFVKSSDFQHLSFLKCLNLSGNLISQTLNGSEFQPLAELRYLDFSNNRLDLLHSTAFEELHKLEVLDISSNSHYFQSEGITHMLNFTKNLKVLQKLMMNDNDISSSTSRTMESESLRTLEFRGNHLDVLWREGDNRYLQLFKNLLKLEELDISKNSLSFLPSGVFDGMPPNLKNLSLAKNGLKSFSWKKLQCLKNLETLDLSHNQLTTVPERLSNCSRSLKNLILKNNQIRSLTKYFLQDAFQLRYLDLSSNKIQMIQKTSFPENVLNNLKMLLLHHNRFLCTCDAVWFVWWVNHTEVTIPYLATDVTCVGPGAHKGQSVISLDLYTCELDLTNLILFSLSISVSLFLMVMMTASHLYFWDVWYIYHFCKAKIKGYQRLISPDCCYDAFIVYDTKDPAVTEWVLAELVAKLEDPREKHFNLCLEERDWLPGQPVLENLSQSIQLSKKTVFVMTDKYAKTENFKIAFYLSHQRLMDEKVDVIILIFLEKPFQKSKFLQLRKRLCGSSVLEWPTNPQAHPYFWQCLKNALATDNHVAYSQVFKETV
Put plainly: TLR7 inhibition reporter assay (HEK-Blue cells, SEAP reporter, gardiquimod stimulation). As to conditions: HEK-Blue cells overexpressing human TLR7, SEAP reporter, gardiquimod 7.5 μM. The procedure, abridged: as §1

Broadly, the pIC50 is the negative decadic logarithm of the IC50, by convention in mol/L. A higher pIC50 goes with a low IC50. Turning to `CNC(=O)CN1CCC(c2ccc3[nH]c(-c4cc(C)n5nc(C)cc5c4)c(C(C)C)c3c2)CC1` [Example 419, 2-(4-(2-(2,7-dimethylpyrazolo[1,5-a]pyridin-5-yl)-3-isopropyl-1H-indol-5-yl)piperidin-1-yl)-N-methylacetamide], the pIC50 at human TLR8 was 6.00 to 7.00; against human TLR9, 4.30 to 6.00; on human TLR7 it was above 7.00.

In the case of `CNC(=O)CN1CCC(c2ccc3[nH]c(-c4cc(F)c5nccn5c4)c(CC(F)F)c3c2)CC1` [Example 411, 2-(4-(3-(2,2-difluoroethyl)-2-(8-fluoroimidazo[1,2-a]pyridin-6-yl)-1H-indol-5-yl)piperidin-1-yl)-N-methylacetamide], the pIC50 on human TLR8 was 6.00 to 7.00; against human TLR9, 4.30 to 6.00; on human TLR7, above 7.00.

Regarding `CC(C)c1c(-c2ccc3nncn3n2)[nH]c2ccc(C3CCNCC3)cc12` [Example 185, 6-(3-isopropyl-5-(piperidin-4-yl)-1H-indol-2-yl)-[1,2,4] triazolo[4,3-b]pyridazine], the results for the pIC50 on human TLR8, against human TLR9 and at human TLR7 were 6.00 to 7.00, 4.30 to 6.00 and 6.00 to 7.00, respectively.

As for `Cc1cc2cc(-c3[nH]c4ccc(C5CCNCC5)cc4c3C(C)C)ccn2n1` [Example 145, 5-(3-isopropyl-5-(piperidin-4-yl)-1H-indol-2-yl)-2-methylpyrazolo[1,5-a]pyridine], the values for the pIC50 against human TLR8, on human TLR9 and on human TLR7 were 4.30 to 6.00, 4.30 to 6.00 and above 7.00, respectively.

On to `CCc1c(-c2ccnc3[nH]ncc23)[nH]c2ccc(C3CCN(Cc4csc(C(C)C)n4)CC3)cc12` [Example 859, 4-((4-(3-ethyl-2-(1H-pyrazolo[3,4-b]pyridin-4-yl)-1H-indol-5-yl)piperidin-1-yl)methyl)-2-isopropylthiazole], for which the negative logarithm of the IC50 (pIC50) against human TLR8 was 6.00 to 7.00; at human TLR9 it was 4.30 to 6.00; against human TLR7, 6.00 to 7.00.

Take `Cc1cc(-c2[nH]c3ccc(C4CCN(CC(=O)N(C)C)CC4)cc3c2C(C)C)cc2cncn12` [Example 439, 2-(4-(3-isopropyl-2-(5-methylimidazo[1,5-a]pyridin-7-yl)-1H-indol-5-yl)piperidin-1-yl)-N,N-dimethylacetamide]: the pIC50 at human TLR8 was above 7.00; at human TLR9, 4.30 to 6.00; against human TLR7, above 7.00.

For `CNCCN1CCC(c2ccc3[nH]c(-c4ccc5nccn5c4)c(C(C)C)c3c2)CC1` [Example 680, 2-(4-(2-(imidazo[1,2-a]pyridin-6-yl)-3-isopropyl-1H-indol-5-yl)piperidin-1-yl)-N-methylethan-1-amine], the pIC50 against human TLR8 was above 7.00; against human TLR9 it was 6.00 to 7.00; against human TLR7, above 7.00.

As for `CC(C)c1c(-c2ccnc3[nH]ncc23)[nH]c2ccc(C3CCN(C(=O)CCN(C)C)CC3)cc12` [Example 643, 3-(dimethylamino)-1-(4-(3-isopropyl-2-(1H-pyrazolo[3,4-b]pyridin-4-yl)-1H-indol-5-yl)piperidin-1-yl)propan-1-one], the pIC50 is above 7.00 on human TLR8, 6.00 to 7.00 at human TLR9 and above 7.00 against human TLR7.

As to `Cc1cc(-c2[nH]c3ccc(C4CCN(CCC(F)(F)F)CC4)cc3c2C(C)C)cn2nnnc12` [Example 962, 6-(3-isopropyl-5-(1-(3,3,3-trifluoropropyl)piperidin-4-yl)-1H-indol-2-yl)-8-methyltetrazolo[1,5-a]pyridine], the pIC50 is above 7.00 at human TLR8, below 4.30 at human TLR9 and above 7.00 at human TLR7.

For the molecule `COc1nc(-c2[nH]c3ccc(C4CCN(CC(=O)N(C)C)CC4)cc3c2C(C)C)cn2ncnc12` [Example 292, 2-(4-(3-isopropyl-2-(8-methoxy-[1,2,4]triazolo[1,5-a]pyrazin-6-yl)-1H-indol-5-yl)piperidin-1-yl)-N,N-dimethylacetamide], the pIC50 against human TLR8 was above 7.00; against human TLR9, 4.30 to 6.00; against human TLR7 it was above 7.00.
